In BindingDB's records for doi:10.7270/Q2H993J6 (Pcmd, 2008) one finds IC50 data, which are given here for 38 molecules.

In general, IC50 refers to the concentration at which inhibition is half-maximal. Read a low IC50 as greater potency.

This test has as its target Coagulation factor XI (Homo sapiens, UniProt P03951). As to the kind of experiment: factor XIa inhibitor concentration-response – biochemical, hits from 1536-well screen, dose response (AID 846). To be noted: pH 7.4; 23 °C.

Sequence of Coagulation factor XI (P03951 19-387 limits assumed): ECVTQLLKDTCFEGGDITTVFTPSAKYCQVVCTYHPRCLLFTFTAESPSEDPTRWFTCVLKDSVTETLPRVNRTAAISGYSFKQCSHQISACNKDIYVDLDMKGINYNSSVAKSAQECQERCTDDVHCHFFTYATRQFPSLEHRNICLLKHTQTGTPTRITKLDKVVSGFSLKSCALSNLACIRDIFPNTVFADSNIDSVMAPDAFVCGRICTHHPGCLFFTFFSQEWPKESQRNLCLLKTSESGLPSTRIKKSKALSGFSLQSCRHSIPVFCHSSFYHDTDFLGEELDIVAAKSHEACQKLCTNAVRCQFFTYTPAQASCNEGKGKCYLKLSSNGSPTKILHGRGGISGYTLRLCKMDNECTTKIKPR
Sequence of Coagulation factor XI (P03951 388-625 limits assumed): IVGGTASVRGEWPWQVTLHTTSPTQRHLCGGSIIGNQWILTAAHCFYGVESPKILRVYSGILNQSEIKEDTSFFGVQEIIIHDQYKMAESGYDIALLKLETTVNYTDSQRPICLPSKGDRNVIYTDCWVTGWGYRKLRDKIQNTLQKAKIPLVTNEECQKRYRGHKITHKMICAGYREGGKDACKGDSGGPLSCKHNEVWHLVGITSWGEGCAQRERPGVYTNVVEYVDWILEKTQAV

For `O=C(O)c1ccc(N=C(NS(=O)(=O)c2ccc(Cl)cc2)c2ccccc2)cc1` [4-({[(E)-4-Chloro-benzenesulfonylimino]-phenyl-methyl}-amino)-benzoic acid], the IC50 is > 50 µM.

Regarding `CCc1cc(-c2n[nH]cc2-c2nc3ccccc3n2C)c(O)cc1O` [4-Ethyl-6-[4-(1-methyl-1H-benzoimidazol-2-yl)-1H-pyrazol-3-yl]-benzene-1,3-diol], the IC50 is > 50 µM. On to `Clc1ccc(-c2csc(N3CCOCC3)n2)cc1` [4-[4-(4-chlorophenyl)-2-thiazolyl]morpholine], for which the IC50 was > 50 µM. Regarding `O=C(O)c1ccc(/C=C2\SC(=S)N(Nc3ccccc3)C2=O)cc1` [4-[4-Oxo-3-phenylamino-2-thioxo-thiazolidin-(5Z)-ylidenemethyl]-benzoic acid], the IC50 was > 50 µM. In the case of `Cc1ccc2c(CN3CCN(Cc4ccc5c(c4)OCO5)CC3)cc(=O)oc2c1C` [4-[[4-(1,3-benzodioxol-5-ylmethyl)-1-piperazinyl]methyl]-7,8-dimethyl-1-benzopyran-2-one] it was > 50 µM; in that of `CCCOC(=O)c1ccc(Oc2c[nH]nc2-c2ccc(OCC(=O)NN)cc2O)cc1` [4-[[(3E)-3-[4-(2-hydrazinyl-2-oxoethoxy)-6-oxo-1-cyclohexa-2,4-dienylidene]-1,2-dihydropyrazol-4-yl]oxy]benzoic acid propyl ester], > 50 µM; in that of `CCCN(CCC)S(=O)(=O)c1ccc(C(=O)NNc2nc(-c3ccccc3)c3cc(Br)ccc3n2)cc1` [4-[[(6-bromo-4-phenylquinazolin-2-yl)amino]carbamoyl]-N,N-dipropylbenzenesulfonamide], > 50 µM.

As to `O=C(Nc1nc(-c2cccs2)cs1)c1ccc(Cl)cc1` [4-chloro-N-(4-thiophen-2-yl-2-thiazolyl)benzamide], the IC50 was determined as 17.3 µM.

`O=C(Oc1ccc(=O)n(-c2ccccc2)n1)c1ccc(Cl)cc1` [4-chlorobenzoic acid (6-oxo-1-phenyl-3-pyridazinyl) ester] displayed an IC50 of 5.6 µM. This IC50 is about 3.1-fold lower than that of the molecule before. With `CCOC(=O)Cc1csc(NC(=O)CC(C)(C)CC(=O)O)n1` [5-[[4-(2-ethoxy-2-oxidanylidene-ethyl)-1,3-thiazol-2-yl]amino]-3,3-dimethyl-5-oxidanylidene-pentanoic acid], the IC50 is > 50 µM. `O=C(NNC(=O)c1cccs1)c1ccc(Br)o1` [5-bromo-N'-(thiophene-2-carbonyl)furan-2-carbohydrazide] showed an IC50 of 8.51 µM. In the case of `CC1=CCC2C(=O)N(C(C)c3ccccc3)C(=O)C2C1` (stereo not drawn) [5-methyl-2-(1-phenylethyl)-3a,4,7,7a-tetrahydro-1H-isoindole-1,3(2H)-dione] it was > 50 µM; in that of `C=CCOC(=O)C1C(C)=Nc2[nH]c(=O)[nH]c(=O)c2C1c1ccccc1` (stereo not drawn) [7-methyl-2,4-dioxo-5-phenyl-5,8-dihydro-1H-pyrido[2,3-d]pyrimidine-6-carboxylic acid prop-2-enyl ester], > 50 µM; in that of `CCSc1nnc(NC(=O)[C@H](C)N2C(=O)C3CC=CCC3C2=O)s1` (stereo partly drawn) [(2S)-2-(1,3-dioxo-3a,4,7,7a-tetrahydroisoindol-2-yl)-N-[5-(ethylthio)-1,3,4-thiadiazol-2-yl]propanamide], > 50 µM. Consider `O=S(=O)([N-]c1nc2ccccc2nc1-[n+]1ccn(Cc2ccccc2)c1)c1ccc(Cl)cc1` [(4-chlorophenyl)sulfonyl-[3-[3-(phenylmethyl)imidazol-3-ium-1-yl]quinoxalin-2-yl]azanide], for which the IC50 was > 50 µM. Consider `Oc1ccc(CN=Nc2nc(-c3cccnc3)nc3ccccc23)c(O)c1` [(4E)-3-hydroxy-4-[[2-(2-pyridin-3-ylquinazolin-4-yl)hydrazinyl]methylidene]cyclohexa-2,5-dien-1-one], for which the IC50 was > 50 µM. Turning to `Cn1cccc1/C=C1\C(=O)NC(=O)N(Cc2ccccc2Cl)C1=O` [(5E)-1-[(2-chlorophenyl)methyl]-5-[(1-methylpyrrol-2-yl)methylidene]-1,3-diazinane-2,4,6-trione], the IC50 is > 50 µM.

Turning to `O=C(Oc1ccc(=O)n(-c2ccccc2)n1)c1cccc(Cl)c1` [(6-oxidanylidene-1-phenyl-pyridazin-3-yl) 3-chloranylbenzoate], it took 1.71 µM to reach half-maximal inhibition (IC50). In other words, the single-digit micromolar range. In the case of `CC/C=C/C(=O)N1CC2(CC(c3cccc(NC(=O)CCCCC)c3)=NO2)C[C@H]1C(N)=O` (stereo partly drawn) [(8S)-3-[3-(hexanoylamino)phenyl]-7-[(E)-pent-2-enoyl]-1-oxa-2,7-diazaspiro[4.4]non-2-ene-8-carboxamide] it was 9.23 µM; in that of `N#C/C(=C\c1cccnc1)c1nc2ccccc2[nH]1` [(E)-2-(1H-Benzoimidazol-2-yl)-3-pyridin-3-yl-acrylonitrile], > 50 µM.

`CCN(C(=O)COC(=O)/C=C/c1c(C)nn(-c2ccccc2)c1C)C1CCS(=O)(=O)C1` (stereo not drawn) [(E)-3-(3,5-dimethyl-1-phenyl-4-pyrazolyl)-2-propenoic acid [2-[(1,1-dioxo-3-thiolanyl)-ethylamino]-2-oxoethyl] ester]: the IC50 is > 50 µM.

Take `CC(=O)c1ccc(NC(=O)C(Cl)=Cc2ccccc2)cc1` [(Z)-N-(4-acetylphenyl)-2-chloro-3-phenyl-2-propenamide]: the IC50 is > 50 µM. In the case of `CC(Cc1ccccc1)=NNC(=O)CNC(=O)C=Cc1ccccc1` [(Z)-N-[2-oxo-2-[2-(1-phenylpropan-2-ylidene)hydrazinyl]ethyl]-3-phenyl-2-propenamide] it was > 50 µM. On to `O=C1c2ccccc2C(=O)N1OS(=O)(=O)c1ccccc1` [Benzenesulfonic acid 1,3-dioxo-1,3-dihydro-isoindol-2-yl ester], for which the IC50 turned out to be 1.4 µM. On to `COc1ccc(OC)c(S(=O)(=O)N2CCCC(C)C2)c1` (stereo not drawn) [MLS000035543], for which the IC50 is > 50 µM. Take `COC(=O)c1[nH]c2cc(OC)ccc2c1NC(=O)CCN1CCCCC1` [MLS000041334]: the IC50 was > 50 µM. `O=C(Cc1cccs1)Nc1nnc(CCc2ccccc2)s1` [MLS000064221]: the IC50 was > 50 µM. Turning to `FC(F)C(F)(F)C(F)(F)C(F)(F)c1cc(-c2ccccc2)n[nH]1` [MLS000106686], the IC50 is > 50 µM. As for `C/C=C(\C)C(=O)OC1c2c(ccc3ccc(=O)oc23)OC(C)(C)C1OC(C)=O` (stereo not drawn) [MLS000121833], the IC50 was > 50 µM. With `CCOC(=O)c1sc(NC(=O)CSC(=S)N2CCN(C)CC2)nc1C` [MLS000332299], the IC50 was > 50 µM.

For the molecule `O=C(Oc1ccc2c(=O)c(Cl)coc2c1)c1cccnc1` [MLS000523505], the IC50 is > 50 µM.

Consider `CCOC(=O)CSc1nnc(-c2ccccc2)o1` [MLS000526656], for which the IC50 is > 50 µM. In the case of `O=C1NN(c2ccccc2)C(=O)/C1=C\c1cccc(OC(=O)c2cccs2)c1` [MLS000534153] it was > 50 µM; in that of `CSc1nc2cc3c(cc2n1C(=O)c1ccc(C)cc1)OCCO3` [MLS000544330], 2.22 µM. Regarding `CN1C(=O)C(=NOC(=O)c2ccccc2)c2ccccc21` [MLS000556117], the IC50 amounted to 25.9 µM.

On to `CCOC(=O)Cc1csc(NC(=O)c2sc3nc4ccc(CC)cc4cc3c2N)n1` [MLS000556627], for which the IC50 was > 50 µM. `CCCCCC(=O)Nc1cccc([C+]2CC3(CC(C(N)=O)N(C(=O)c4cc([N+](=O)[O-])cc([N+](=O)[O-])c4C)C3)O[N-]2)c1` (stereo not drawn) [MLS000561980] came in with an IC50 of 34.4 µM.

Molecule `Cc1cc(C)c(S(=O)(=O)ON2C(=O)c3ccccc3C2=O)cc1C` [MLS000577081] showed an IC50 of 1.01 µM. Compared with the last molecule, the IC50 is about 34-fold lower.
